Source: patent US20240382548A1, “COMPOSITIONS COMPRISING CASTANEA SATIVA EXTRACTS FOR TREATMENT OF HELICOBACTER PYLORI INFECTIONS” (priority 2021, published 2024)
In brackets after ≈: the same amount, converted by molar mass. Read-outs that look alike come from different tables or passages of the source.

Key:
[1] = tested on: IL-8 release induced by H. pylori in GES-1 cells; test: IL-8 release induced by H. pylori in GES-1 cells; type: cell-based, human; details: for effect on IL-8 release induced by the pathogen: 10-50 μM
Experimental: At the same concentrations, the extract inhibits IL-8 release induced by H. pylori in GES-1 cells; the pathogen induces IL-8 release in gastric epithelial cells, of about a 20-fold increase compared with the unstimulated control. […] EGCG 50 μM (50% inhibition) was used as a positive control.

[2] = tested on: nuclear transcription factor NF-κB; test: NF-κB-guided transcription (luciferase reporter) induced by H. pylori; type: cell-based; details: 50 μM, positive control
Experimental: The nuclear transcription factor NF-κB is involved in inflammation of the gastric epithelium induced by H. pylori and is also responsible for increased expression of pro-inflammatory genes, including IL-8, in the gastric cells. […] The cells were 20 subjected to transient transfection with a plasmid containing three KB responsive sites upstream of the gene encoding for luciferase; the cells then underwent treatment with the pathogen, and the transcription was measured after 6 hours by luminescence.

H. pylori = test: Antibacterial activity (MIC) on a strain of H. pylori; type: cell-based; details: Helicobacter pylori; for MIC: read-out: MIC on H. pylori
Experimental: The antibacterial activity of the chestnut extract was evaluated by measuring the MIC (Minimum Inhibitory Concentration) on a strain of H. pylori.

[3] = tested on: non-tumoral human gastric epithelial cells GES-1; type: cell-based; details: 10-50 μM concentration range
Experimental: Firstly, the extract was analysed to establish its possible cytotoxicity (using the MTT colorimetric assay) towards non-tumoral human gastric epithelial cells GES-1 in the presence of H. pylori (ratio 1:50).

Q: How did the “inhibition of IL-8 release” value ([1]; 50 μM, positive control) turn out when O=C(O[C@@H]1Cc2c(O)cc(O)cc2O[C@@H]1c1cc(O)c(O)c(O)c1)c1cc(O)c(O)c(O)c1 [EGCG, epigallocatechin gallate, reference compound] was run?
A: 50%

Q: And the “inhibition of NF-κB-guided transcription” value [2]?
A: 63%

Q: With CN(C)[C@@H]1C(O)=C(C(N)=O)C(=O)[C@@]2(O)C(O)=C3C(=O)c4c(O)cccc4[C@@](C)(O)[C@H]3C[C@@H]12 [Tetracycline, reference compound] as the compound, how does the inhibition at 0.25 µg/mL (H. pylori; 0.25 μg/mL, positive control, read-out: inhibition of the growth of the pathogen) read?
A: 80%

Q: What does the source list for O=C1OC[C@H]2OC(=O)c3cc(O)c(O)c(O)c3-c3c(O)c(O)c(O)c4c3C(=O)O[C@H]([C@H]3OC(=O)c5c-4c(O)c(O)c(O)c5[C@H]3O)[C@@H]2OC(=O)c2cc(O)c(O)c(O)c2-c2c1cc(O)c(O)c2O [castalagin]?
A: toxicity [3]: did not exhibit any toxicity; effect on IL-8 release induced by the pathogen [1]: concentration-dependent inhibition; MIC (H. pylori; same experimental conditions as the extract): 25 µM (≈ 23.4 µg/mL)

Q: O=C1OCC2OC(=O)c3cc(O)c(O)c(O)c3-c3c(O)c(O)c(O)c4c3C(=O)OC(C2OC(=O)c2cc(O)c(O)c(O)c2-c2c1cc(O)c(O)c2O)C1OC(=O)c2c-4c(O)c(O)c(O)c2C1O (stereo not drawn) [vescalagin] was tested. Which toxicity [3] did it give?
A: did not exhibit any toxicity

Q: What about the “effect on IL-8 release induced by the pathogen” value [1] of the same compound?
A: concentration-dependent inhibition

Q: What about the MIC (H. pylori) of the same compound?
A: 25 µM (≈ 23.4 µg/mL)
